“And” between values parts separate entries of the source, which are not always exact repeats. Equal entries are not always repeated.
Test system: 186277-243-T-J2-PDC complex spheroid growth, % test/control
Test: Anticancer human tumor 186277-243-T-J2-PDC patient-derived colon adenocarcinoma cell line growth inhibition [Asc]
Settings: for viability, T/C: stronger effect = lower value
Protocol: Multicellular complex tumor spheroid response to apoptosis pathway targeting inhibitors Alrizomadlin, Pelcitoclax, and Dasminapant in combination with a variety of drugs and investigational agents in selected tumor cell lines
The MDM2 inhibitor alrizomadlin, the Bcl-2/Bcl-xL inhibitor pelcitoclax, and the IAPs inhibitor dasminapant were evaluated both individually and in combination with standard of care and investigational anticancer small molecules within a complex spheroid model of solid tumors. . Complex spheroids include a stromal component modeled by human endothelial cells (HUVEC) and fibroblasts modeled by human mesenchymal stem cells (MSCs). The concentration ranges selected for each drug and investigational agent were based upon clinically achievable concentrations if the clinical Cmax of the agent was known.
Compounds. The drugs and investigational agents: alrizomadlin (APG-115; NSC831270), pelcitoclax (APG-1252; NSC835773), dasminapant (APG-1387;NSC834197), TAK-243 (NSC785004), copanlisib (NSC809693), olaparib (NSC753686), talazoparib (NSC767125), cobimetinib (NSC 768068), eltanexor (KPT-8602, NSC 794443), abemaciclib (NSC 768073), sotorasib (NSC818433), adagrasib (NSC 831453), MRTX-1133 (NSC 836407), Iadademestat (ORY1001, NSC 806812), and RMC-4630 (NSC839698), were obtained from the NCI Developmental Therapeutics Program Chemical Repository. The FDA-approved anticancer drug set is available from the Developmental Therapeutics Program at https://dtp.cancer.gov/organization/dscb/obtaining/available plates.htm. […] The stock solutions were prepared in dimethyl sulfoxide (DMSO, Sigma-Aldrich, St. Louis, MO, cat. D2650) at 800-fold the tested concentration and stored at -70 degrees C prior to their use. All drugs and investigational agents were tested over a range starting from a high concentration at or near the clinical Cmax and decreasing in half-log increments. If the clinical Cmax for an agent had not been determined, the highest concentration tested was 10 microM.
The patient-derived cancer (PDC) cell lines include five colon adenocarcinomas: 186277-243-T-J2-PDC, 616215-338-R-J1-PDC, 439559-082-T-J2-PDC, 463943-066-T-J2-PDC, and 519858-162-T-J1-PDC; three pancreatic carcinomas: 323965-272-R-J2-PDC, 521955-158-R6-J3-PDC, and 521955-158-R2-J5-PDC; two uterine sarcomas: 327498-152-R-J2-PDC and 993429-296-R-J1-PDC; two rhabdomyosarcomas: 755483-174-R-J1-PDC and 772245-204-R-J1-PDC; two soft tissue sarcomas: 126254-015-R-J1-PDC and 494315-158-R-J1-PDC; two malignant fibrous histiocytomas: 317291-083-R-J1-PDC and 596521-263-R-J1-PDC; two breast carcinomas: 171881-019-R-J1-PDC and 885512-296-R-J2-PDC; and one ovarian carcinoma: 6556581-035-R-J-PDC were obtained from the NCI PDMR, (https://pdmr.cancer.gov). The established cell lines HSSY-2 synovial sarcoma (RRID:CVCL 8719), SYO-1 synovial sarcoma (RRID:CVCL_7146), MPNST malignant peripheral neural sheath tumor were obtained from the Sloan Kettering Institute. The following established cell lines were purchased from the American Type Culture Collection (ATCC, Manassas, VA), Sor the received from the NCI repository:, PANC-1 pancreatic carcinoma (CRL-1469, RRID:CVCL_0480), OVCAR-5 ovarian carcinoma (RRID:CVCL_1628), OVCAR-8 ovarian carcinoma (RRID:CVCL_1629), , MCF-7 breast carcinoma (CRL-12584, RRID:CVCL_0031), MDA-MB-231 breast carcinoma (CRL-12532, RRID:CVCL_0062), NCI-H1876 small cell lung carcinoma (CRL-5902, RRID:CVCL_1503), NCI-H510A small cell lung carcinoma (HTB-184, RRID:CVCL_1565), NCI-H1417 (CRL-5869, RRID:CVCL_1469), and NCI-H196 small cell lung carcinoma (CRL-5823, RRID:CVCL_1509). Dr. Peter Houghton (Greehey Children's Cancer Research Institute, University of Texas Health Science Center, San Antonio, TX) provided Rh-18 rhabdomyosarcoma (RRID:CVCL_1659). Pooled donor human umbilical vein endothelial cells (HUVEC, Lonza, cat. CC-2519) and human mesenchymal stem cells (hMSC, Lonza, cat. PT-2501) were purchased from Lonza (Walkersville, MD).
Cell Culture. […]
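Further: spheroids exposed to agents for 7 days.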
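Wherever viability, T/C is given: 100% = DMSO vehicle control wells.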

IC50 (curve of compound)	Structure (SMILES)	viability, T/C (compound 0.0316 µM)	viability, T/C (compound 0.1 µM)	viability, T/C (compound 0.316 µM)	viability, T/C (compound 1 µM)	viability, T/C (compound 0.00316 µM)	viability, T/C (compound 0.01 µM)	further results
649 nM and 306 nM and 204 nM	C#Cc1c(F)ccc2cc(O)cc(-c3ncc4c(N5CC6CCC(C5)N6)nc(OCC56CCCN5CC(F)C6)nc4c3F)c12 (stereo not drawn)	103% and 107% and 88.1%	105% and 88.2% and 66.5%	76.8% and 48.2% and 40.8%	33.4% and 21.4% and 16.8%	–	–	viability, T/C (compound 3.16 µM): 19.4% and 12.1% and 11.2%; viability, T/C (compound 10 µM): 12.5% and 8.62% and 7.15%
5700 nM and 5170 nM and 9280 nM	C=C(F)C(=O)N1CCN(c2nc(OCC3CCCN3C)nc3c2CCN(c2cccc4cccc(Cl)c24)C3)CC1CC#N (stereo not drawn)	107% and 98.5% and 102%	112% and 77.5% and 116%	107% and 83.6% and 103%	103% and 77.3% and 80.7%	–	–	viability, T/C (compound 3.16 µM): 96.5% and 85% and 109%
> 10000 nM	C=CC(=O)N1CCN(c2nc(=O)n(-c3c(C)ccnc3C(C)C)c3nc(-c4c(O)cccc4F)c(F)cc23)C(C)C1 (stereo not drawn)	105% and 89.2% and 107%	92.6% and 91.2% and 95.4%	92.2% and 96.7% and 90.9%	102% and 99.8% and 107%	–	–	viability, T/C (compound 3.16 µM): 97.3% and 94.7% and 112%; viability, T/C (compound 10 µM): 114% and 102% and 97.3%
52.2 nM and 41.3 nM and 112 nM	COc1c(OCCCN2CCOCC2)ccc2c3n(c(=NC(=O)c4cnc(N)nc4)nc12)CCN3	58.9% and 54.5% and 69%	35.2% and 28.6% and 56.5%	17.5% and 17% and 29.3%	13.2% and 11.8% and 19.8%	91% and 96.2% and 93.6%	102% and 91% and 105%	–
> 3000 nM	Cc1nc(N2CCC3(CC2)COC(C)C3N)c(CO)nc1Sc1ccnc(N)c1Cl (stereo not drawn)	–	–	–	–	–	–	viability, T/C (compound 0.00949 µM): 92.7% and 111% and 93.3%; viability, T/C (compound 0.03 µM): 89.2% and 95.6% and 104%; viability, T/C (compound 0.0949 µM): 81% and 91.5% and 95.9%; viability, T/C (compound 0.3 µM): 102% and 103% and 96.9%; viability, T/C (compound 0.949 µM): 102% and 114% and 95%; viability, T/C (compound 3 µM): 109% (2×) and 93.4%

Second part, the compound before the results:

Structure (SMILES)	IC50 (curve of compound)	viability, T/C (compound 0.0316 µM)	viability, T/C (compound 0.1 µM)	viability, T/C (compound 0.316 µM)	viability, T/C (compound 1 µM)	viability, T/C (compound 0.00316 µM)	viability, T/C (compound 0.01 µM)	further results
CCN1C(C(=O)NC23CCC(C(=O)O)(CC2)CC3)C(c2cccc(Cl)c2F)C2(C(=O)Nc3cc(Cl)ccc32)C12CCCCC2 (stereo not drawn)	1860 nM and > 3000 nM	–	–	–	–	–	–	viability, T/C (compound 0.00949 µM): 110% and 119%
CCN1CCN(Cc2ccc(Nc3ncc(F)c(-c4cc(F)c5nc(C)n(C(C)C)c5c4)n3)nc2)CC1	> 1000 nM	116% and 109% and 93.2%	116% and 108% and 112%	99.9% and 99.1% and 127%	97.2% and 98.6% and 123%	102% and 90.6% and 91.4%	88% and 106% and 84.1%	–
CNC(C)C(=O)NC1CN(S(=O)(=O)c2cccc(S(=O)(=O)N3CCC4CCC(C(=O)NC(c5ccccc5)c5ccccc5)N4C(=O)C(NC(=O)C(C)NC)C3)c2)CCC2CCC(C(=O)NC(c3ccccc3)c3ccccc3)N2C1=O (stereo not drawn)	> 1000 nM	–	104% [middle of 15 runs]	–	–	93.8% and 103%	–	IC50 (compound alone, run of 10/03/2022): > 1000 nM
Cc1c(S(C)(=O)=O)c(-c2cc(F)cc(N3CCN(c4ccc(NS(=O)(=O)c5ccc(NC(CCN6CCC(C(=O)OCCCP(=O)(O)O)CC6)CSc6ccccc6)c(S(=O)(=O)C(F)(F)F)c5)cc4)CC3)c2)c(-c2ccc(Cl)cc2)n1C(C)C (stereo not drawn)	–	–	–	–	–	–	–	IC50 (compound alone, run of 09/27/2022): > 10000 nM
Cn1ncnc1[C@H]1c2n[nH]c(=O)c3cc(F)cc(c23)N[C@@H]1c1ccc(F)cc1	> 100 nM	118% and 122% and 108%	111% and 134% and 100%	–	–	108% and 104% and 99.5%	116% and 118% and 84.3%	viability, T/C (compound 0.000316 µM): 93% and 95.2% and 74.1%; viability, T/C (compound 0.001 µM): 99.3% and 88.2% and 97.6%
NC(=O)C(=Cn1cnc(-c2cc(C(F)(F)F)cc(C(F)(F)F)c2)n1)c1cncnc1	161 nM and 141 nM and 218 nM	–	–	–	–	–	–	viability, T/C (compound 0.000949 µM): 99.3% and 89.8% and 97.7%; viability, T/C (compound 0.003 µM): 80.2% and 78.8% and 94.8%; viability, T/C (compound 0.00949 µM): 96.9% and 100% and 103%; viability, T/C (compound 0.03 µM): 96.2% and 77.8% and 106%; viability, T/C (compound 0.0949 µM): 81.6% and 71.7% and 101%; viability, T/C (compound 0.3 µM): 12.6% and 11.8% and 30.5%
NC1CCC(NC2CC2c2ccccc2)CC1 (stereo not drawn)	> 100 nM	83.8% and 77.6% and 108%	79.2% and 72.9% and 88.8%	–	–	101% and 79% and 98.9%	96.4% and 84.1% and 93.7%	viability, T/C (compound 0.000316 µM): 104% and 75.7% and 107%; viability, T/C (compound 0.001 µM): 96.8% and 96.6% and 112%
O=C(c1cc(Cc2n[nH]c(=O)c3ccccc23)ccc1F)N1CCN(C(=O)C2CC2)CC1	> 10000 nM	98.1% and 91.9% and 98.5%	95.8% and 101% and 97.5%	94.8% and 99% and 102%	95.9% and 94.6% and 98.1%	–	–	viability, T/C (compound 3.16 µM): 105% and 117% and 121%; viability, T/C (compound 10 µM): 103% and 112% and 135%
O=C(c1ccc(F)c(F)c1Nc1ccc(I)cc1F)N1CC(O)([C@@H]2CCCCN2)C1	127 nM and 201 nM	97.7% and 88.7% and 90.1%	59.7% and 58.8% and 96.4%	14.8% and 15.4% and 23.9%	9.12% and 8.82% and 13.1%	87.9% and 90.5% and 94.8%	88.2% and 90.8% and 78.7%	–
